According to PMC11822712, “Improving the Activity and Selectivity of a Scorpion-Derived Peptide, A3a, against Acinetobacter baumannii through Rational Design” (ACS Omega, 2025):
Converted amounts (≈) assume the structure as drawn. Like-named read-outs stand apart in the source and are kept apart here. Positions of bridges follow the written chain, without caps; N, C: chain ends. Non-standard residues stand in square brackets, D forms with d. Residues, ends and D or L forms follow the SMILES beside them. No end group written: not given here. *: point of attachment. X1 = CC[C@H](C)CCCCC(=O)*; Dab = NCC[C@H](N)C(=O)O

Experiments:
A. baumannii ATCC 19606 [1] = assay: Killing kinetics (CFU, Miles Misra method); format: cell-based, Acinetobacter baumannii; conditions: 1×, 4× and 8× MIC, A3a tested at the same concentration as A3a[R7K] (Figure 3 legend)
Description: Colistin (8 μg/mL) was used as a positive control. […] Following exposure, 10 μL was used from the individual wells to determine the CFUs with the Miles Misra method.[57] The limit of detection for this method was 1000 CFUs. This was done at 30 min and 2, 6, and 24 h.

[2] = system: K. pneumoniae ATCC BAA-1705; assay: microbe, parasite or virus in culture; format: cell-based, Klebsiella pneumoniae
[3] = system: S. aureus (MSSA) ATCC 25923; assay: microbe, parasite or virus in culture; format: cell-based, Staphylococcus aureus; conditions: cation-adjusted MHB, OD600
A. baumannii ATCC 19606 [4] = assay: microbe, parasite or virus in culture; format: cell-based, Acinetobacter baumannii; conditions: cation-adjusted MHB, OD600
E. coli ATCC 25922 = assay: microbe, parasite or virus in culture; format: cell-based, Escherichia coli; conditions: cation-adjusted MHB, OD600
E. cloacae ATCC 700323 = assay: microbe, parasite or virus in culture
Description: Antimicrobial activity was determined against a panel of ESKAPE pathogens. […] Bacterial colonies were picked and cultured in cation-adjusted MHB at 37 °C with 180 rpm shaking. Cultures were back-diluted to reach a starting OD600 of 0.1 and then diluted 100-fold to approximately 1 × 10^6 CFU/mL.

P. aeruginosa ATCC 27853 = assay: microbe, parasite or virus in culture; format: cell-based, Pseudomonas aeruginosa; conditions: cation-adjusted MHB, OD600
HaCat cell = conditions: read-out: IC50 of HaCat cell viability; cited from earlier work
Description: Previously, we amidated the C-terminus of A3 to improve its activity against Gram-negative bacteria.[14] A3, the amidated analogue A3a, and the parent peptide AamAP1 were evaluated for antibacterial activity against a panel of ESKAPE pathogens.

erythrocytes = conditions: 40 μM ref 13; cited from earlier work
A. baumannii ATCC 19606 [5] = assay: Membrane permeabilization, SYTOX Green assay; format: cell-based, Acinetobacter baumannii; conditions: SYTOX Green fluorescence, 1× MIC, 0.5 and 2 h exposure; melittin 8 μM positive control; three biological repeats
Description: For membrane permeabilization studies, A. baumannii ATCC 19606 cells were evaluated after exposure to each peptide by measuring fluorescence. The SYTOX Green assay was undertaken according to Zeng et al.,[58] with some modifications. […] Melittin (8 μM) was used as the positive control. The fluorescence was measured every 2 min at excitation and emission wavelengths of 485 and 535 nm, respectively (Spectramax, Multimode detection platform, Molecular Devices, Austria).

[6] = cation-adjusted MHB, approx. 1 × 10^6 CFU/mL added 1:1, 20 h, OD600, MIC = lowest concentration with growth <0.1 above background, > = no activity at highest concentration tested
[7] = approx. 1 × 10^6 CFU/mL added 1:1, 20 h, MIC = lowest concentration with growth <0.1 above background, > = no activity at highest concentration tested
[8] = same test as μg/mL value, cation-adjusted MHB, 20 h, OD600
[9] = same test as μg/mL value, 20 h, read-out: MIC (value in brackets)

Row | Compound | MIC [2, 6] [µg/mL] | MIC [3, 7] [µg/mL] | MIC (A. baumannii ATCC 19606 [4]; [7]) [µg/mL] | MIC (E. coli ATCC 25922; [7]) [µg/mL] | MIC (P. aeruginosa ATCC 27853; [7]) [µg/mL] | MIC (E. cloacae ATCC 700323; [6]) [µg/mL] | further results
1 | colistin |  |  |  |  |  |  | regrowth after 24 h in killing kinetics (A. baumannii ATCC 19606 [1]): regrowth at all of the concentrations tested
2 | CNC(C)C1CCC(N)C(OC2C(N)CC(N)C(OC3OCC(C)(O)C(NC)C3O)C2O)O1 (stereo not drawn) [gentamicin] | 2 | 0.5 | 32 | 0.5 | 4 |  | MIC ([2]; Klebsiella pneumoniae, ATCCBAA1705, 20 h, read-out: MIC (value in brackets)): 4 µM; MIC ([3]; Staphylococcus aureus, same test as μg/mL value, 20 h, read-out: MIC (value in brackets)): 1 µM; MIC (A. baumannii ATCC 19606 [4]; Acinetobacter baumannii, ATCC19606, same test as μg/mL value, 20 h, read-out: MIC (value in brackets)): 67 µM; MIC (E. coli ATCC 25922; Escherichia coli, ATCC25922, same test as μg/mL value, 20 h, read-out: MIC (value in brackets)): 1 µM; MIC (E. cloacae ATCC 700323; Enterobacter cloacae, ATCC700323, 20 h, read-out: MIC (value in brackets)): 4 µM; MIC (E. cloacae ATCC 700323; cation-adjusted MHB, approx. 1 × 10^6 CFU/mL added 1:1, 20 h, OD600, […], > = no activity at highest concentration tested): 2 µg/mL; MIC (P. aeruginosa ATCC 27853; Pseudomonas aeruginosa, ATCC27853, same test as μg/mL value, 20 h, read-out: MIC (value in brackets)): 8 µM
3 | FLFSLRKAGGLISAFK-NH2 [A3a[I(6,10)-del]] | >128 | >128 | >128 | >128 | >128 | >128 | 
4 | CC[C@H](C)CCCCC(=O)N[C@@H](CCN)C(=O)N[C@H](C(=O)N[C@@H](CCN)C(=O)N[C@H]1CCNC(=O)[C@H]([C@@H](C)O)NC(=O)[C@H](CCN)NC(=O)[C@H](CCN)NC(=O)[C@H](CC(C)C)NC(=O)[C@@H](Cc2ccccc2)NC(=O)[C@H](CCN)NC1=O)[C@@H](C)O [polymyxin B] (X1-[Dab]T[Dab][Dab][Dab][dF]L[Dab][Dab]T; lactam 4-C (inferred); N-terminus assumed) | 0.5 | >32 | 1 | 0.5 | 2 | 0.25 | MIC (value in brackets) [2, 8]: 0.4 µM (≈ 0.481 µg/mL); MIC (A. baumannii ATCC 19606 [4]; [9]): 0.76 µM; MIC (E. coli ATCC 25922; [9]): 0.4 µM; MIC (value in brackets) (E. cloacae ATCC 700323; [8]): 0.19 µM (≈ 0.229 µg/mL); MIC (P. aeruginosa ATCC 27853; [9]): 1.5 µM
5 | FLFSLIRKAIGGLISAFK [A3] |  |  |  |  |  |  | IC50 (HaCat cell): 59.9 µM; hemolysis (erythrocytes): 36.1%
6 | melittin |  |  |  |  |  |  | membrane permeabilization (A. baumannii ATCC 19606 [5]): rapid membrane permeabilization
